Experimental data: US7396837B2, “Antitumoral analogs of lamellarins” (Pharma Mar, S.A.U., priority 2002, dated 2008)

Assays:
Assay type in all cases: cell-based
IGROV = assay: SRB colorimetric cell growth inhibition assay, IGROV; details: Homo sapiens, IGROV
Summary of the method: (§1)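 Growth inhibition (GI), cytostatic total growth inhibition (TGI) and cytotoxic cell-kill (LC) parameters were calculated from SRB-stained cultures held under constant compound exposure, triplicates averaged.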

SK-MEL-28 = assay: SRB colorimetric cell growth inhibition assay, SK-MEL-28; details: Homo sapiens, SK-MEL-28, MEL-28
Summary of the method: as §1

DU-145 = assay: SRB colorimetric cell growth inhibition assay, DU-145; details: Homo sapiens, DU-145, DU-145
Summary of the method: as §1

HeLa-APL = assay: SRB colorimetric cell growth inhibition assay, HeLa-APL (aplidine resistant); details: Homo sapiens, HELA-APL
Summary of the method: as §1

LoVo = assay: SRB colorimetric cell growth inhibition assay, LoVo; details: Homo sapiens, LoVo
Summary of the method: as §1

A-549 = assay: SRB colorimetric cell growth inhibition assay, A-549; details: Homo sapiens, A549, A-549
Summary of the method: as §1

LoVo-Dox = assay: SRB colorimetric cell growth inhibition assay, LoVo-Dox (MDR); details: Homo sapiens, LOVO-DOX
Summary of the method: as §1

PANC-1 = assay: SRB colorimetric cell growth inhibition assay, PANC-1; details: Homo sapiens, PANC-1, PANC-1
Summary of the method: as §1

K-562 = assay: SRB colorimetric cell growth inhibition assay, K-562; details: Homo sapiens, K562, K-562
Summary of the method: as §1

SK-BR-3 = assay: SRB colorimetric cell growth inhibition assay, SK-BR-3; details: Homo sapiens, SK-BR-3, SK-BR-3
Summary of the method: as §1

HeLa = assay: SRB colorimetric cell growth inhibition assay, HeLa; details: Homo sapiens, HeLa
Summary of the method: as §1

LNCaP = assay: SRB colorimetric cell growth inhibition assay, LNCaP; details: Homo sapiens, LNCaP, LN-caP
Summary of the method: as §1

IGROV-ET = assay: SRB colorimetric cell growth inhibition assay, IGROV-ET (ET-743 resistant); details: Homo sapiens, IGROV-ET
Summary of the method: as §1

HT-29 = assay: SRB colorimetric cell growth inhibition assay, HT-29; details: Homo sapiens, HT-29, HT-29
Summary of the method: as §1

Work on `COc1cc2c(cc1O)oc(=O)c1c2c(-c2cccc([N+](=O)[O-])c2)c2c3cc(OC)c(O)cc3ccn21` [Compound 221] yielded a GI50 (IGROV; GI=growth inhibition, read-out: GI50 IGROV) of 0.0819 µM, a CC50 (IGROV; cell killing (cytotoxic effect), read-out: LC50 IGROV) of 20.1 µM and an IC (TGI) (IGROV; total growth inhibition (cytostatic effect), read-out: TGI IGROV) of 20.1 µM. It also gave a GI50 (SK-MEL-28; GI=growth inhibition, read-out: GI50 MEL-28) of 0.106 µM, a CC50 (SK-MEL-28; cell killing (cytotoxic effect), read-out: LC50 MEL-28) of 20.1 µM and an IC (TGI) (SK-MEL-28; total growth inhibition (cytostatic effect), read-out: TGI MEL-28) of 20.1 µM. For the same molecule, the GI50 (DU-145; GI=growth inhibition, read-out: GI50 DU-145) was 0.0431 µM, the CC50 (DU-145; cell killing (cytotoxic effect), read-out: LC50 DU-145) was 20.1 µM and the IC (TGI) (DU-145; total growth inhibition (cytostatic effect), read-out: TGI DU-145) was 0.257 µM. For the same molecule, the GI50 (HeLa-APL; GI=growth inhibition, read-out: GI50 HELA-APL) was 0.0796 µM, the CC50 (HeLa-APL; cell killing (cytotoxic effect), read-out: LC50 HELA-APL) was 20.1 µM and the IC (TGI) (HeLa-APL; total growth inhibition (cytostatic effect), read-out: TGI HELA-APL) was 20.1 µM. It also gave a GI50 (LoVo; GI=growth inhibition, read-out: GI50 LOVO) of 2.41 µM, a CC50 (LoVo; cell killing (cytotoxic effect), read-out: LC50 LOVO) of 15.9 µM and an IC (TGI) (LoVo; total growth inhibition (cytostatic effect), read-out: TGI LOVO) of 6.2 µM. For the same molecule, the GI50 (A-549; GI=growth inhibition, read-out: GI50 A-549) was 0.0802 µM, the CC50 (A-549; cell killing (cytotoxic effect), read-out: LC50 A-549) was 20.1 µM and the IC (TGI) (A-549; total growth inhibition (cytostatic effect), read-out: TGI A-549) was 20.1 µM. It also gave a GI50 (LoVo-Dox; GI=growth inhibition, read-out: GI50 LOVO-DOX) of 2.83 µM, a CC50 (LoVo-Dox; cell killing (cytotoxic effect), read-out: LC50 LOVO-DOX) of 20.1 µM and an IC (TGI) (LoVo-Dox; total growth inhibition (cytostatic effect), read-out: TGI LOVO-DOX) of 14.2 µM. The GI50 (PANC-1; GI=growth inhibition, read-out: GI50 PANC-1) was 0.0786 µM, the CC50 (PANC-1; cell killing (cytotoxic effect), read-out: LC50 PANC-1) was 20.1 µM and the IC (TGI) (PANC-1; total growth inhibition (cytostatic effect), read-out: TGI PANC-1) was 20.1 µM. It also gave a GI50 (K-562; GI=growth inhibition, read-out: GI50 K-562) of 0.0883 µM, a CC50 (K-562; cell killing (cytotoxic effect), read-out: LC50 K-562) of 20.1 µM and an IC (TGI) (K-562; total growth inhibition (cytostatic effect), read-out: TGI K-562) of 20.1 µM. The GI50 (SK-BR-3; GI=growth inhibition, read-out: GI50 SK-BR-3) was 1.53 µM, the CC50 (SK-BR-3; cell killing (cytotoxic effect), read-out: LC50 SK-BR-3) was 20.1 µM and the IC (TGI) (SK-BR-3; total growth inhibition (cytostatic effect), read-out: TGI SK-BR-3) was 12.9 µM. The GI50 (HeLa; GI=growth inhibition, read-out: GI50 HELA) was 0.0564 µM, the CC50 (HeLa; cell killing (cytotoxic effect), read-out: LC50 HELA) was 20.1 µM and the IC (TGI) (HeLa; total growth inhibition (cytostatic effect), read-out: TGI HELA) was 20.1 µM. It also gave a GI50 (LNCaP; GI=growth inhibition, read-out: GI50 LN-caP) of 0.0722 µM, a CC50 (LNCaP; cell killing (cytotoxic effect), read-out: LC50 LN-caP) of 20.1 µM and an IC (TGI) (LNCaP; total growth inhibition (cytostatic effect), read-out: TGI LN-caP) of 5.02 µM. It also gave a GI50 (IGROV-ET; GI=growth inhibition, read-out: GI50 IGROV-ET) of 0.0648 µM, a CC50 (IGROV-ET; cell killing (cytotoxic effect), read-out: LC50 IGROV-ET) of 20.1 µM and an IC (TGI) (IGROV-ET; total growth inhibition (cytostatic effect), read-out: TGI IGROV-ET) of 20.1 µM. For the same molecule, the GI50 (HT-29; GI=growth inhibition, read-out: GI50 HT-29) was 20.1 µM, the CC50 (HT-29; cell killing (cytotoxic effect), read-out: LC50 HT-29) was 20.1 µM and the IC (TGI) (HT-29; total growth inhibition (cytostatic effect), read-out: TGI HT-29) was 20.1 µM.
